Laboratory results from patent publication US8268789B2, “PAR-2 antagonists” (Kowa Company, Ltd., priority 2004, dated 2012).
Where two headings read alike, the source gives them in different places.

Molecular target: T1, PAR-2 (Homo sapiens, UniProt P55085)
T1 construct: intracellular Ca^2+ level change by PAR-2 agonist in human keratinocytes expressing PAR-2; host or cells: primary human keratinocytes, passage 3 to 5
T1 sequence (P55085 26-397): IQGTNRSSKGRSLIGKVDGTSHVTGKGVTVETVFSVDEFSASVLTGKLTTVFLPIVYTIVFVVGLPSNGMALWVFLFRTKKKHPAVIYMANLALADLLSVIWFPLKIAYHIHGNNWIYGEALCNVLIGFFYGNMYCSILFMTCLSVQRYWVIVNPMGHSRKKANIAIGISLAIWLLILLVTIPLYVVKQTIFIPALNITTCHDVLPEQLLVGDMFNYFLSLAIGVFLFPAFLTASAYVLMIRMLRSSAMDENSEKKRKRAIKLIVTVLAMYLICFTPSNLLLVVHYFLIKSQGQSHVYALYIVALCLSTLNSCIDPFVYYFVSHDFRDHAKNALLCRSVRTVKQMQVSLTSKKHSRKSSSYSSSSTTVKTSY
Experiment: Assay of intracellular Ca2+ level in human keratinocytes stimulated with PAR-2 agonist peptide
Assay type: cell-based
Conditions: for inhibition at 10 µg/mL: read-out: Inhibition Rate (%) (Means ± Standard Error, n = 3)
Protocol: The keratinocytes were subjected to passage culture with trypsin/EDTA, and the cells whose passage number was 3 to 5 were used in the experiment.
Flex Station Calcium assay kit 2, which is a fluorescent reagent kit for calcium assay, was purchased from Molecular Devices and used in reagent preparation according to an accompanying protocol. Probenecid, Calcium ionophore (A23187) was purchased from Sigma. The human keratinocytes were seeded at a density of 40,000 cells/well to a 96-well black-well clear-bottom plate (Corning) and cultured for 24 hours until the cells became subconfluent. After washing once with KBM, 80 μl KBM was added to each well. Subsequently, a fluorescent dye solution containing an equal volume of Probenecid at a final concentration of 2 mM (HBSS solution, pH 7.4) was added to each well and incubated at 37° C. for 1 hour. Thereafter, the plate was left for 15 minutes at room temperature and assayed at room temperature (25° C.). The test chemical and the stimulants were prepared by diluting KBM having 10-fold concentration of a final concentration respectively which were then added in a volume of 20 μL respectively for assay. Measurement was carried out with a fluorescent plate reader FlexStation (Molecular Devices) compatible with a 96-well plate equipped with an injector. The measurement through the bottom was carried out for 180 seconds at 2-second intervals at an excitation wavelength of 475 nm and at a measurement wavelength of 525 nm. The chemical was added 17 seconds after the measurement was initiated.

[1] = compound final concentration 10 μg/mL, PAR-2 agonist SLIGKV 10 μM, cultured human keratinocytes, (1-AUCantagonist/AUCcontrol)×100 of time-fluorescence intensity curve

SMILES	inhibition at 10 µg/mL [1] [%]	PAR-2 inhibitory action (inhibition of the agonist-induced increase in intracellular Ca2+ level), in words (compound final concentration 10 μg/mL, SLIGKV 10 μM, human keratinocytes, FIG. 1)	inhibition at 10 µg/mL [%]
NCCCC[C@H](NC(=O)CNC(=O)Nc1ccc2c(c1)c(CN1CCCC1)cn2Cc1c(Cl)cccc1Cl)C(=O)N[C@@H](Cc1ccccc1)C(=O)NC(c1ccccc1)c1ccccc1 [Example 10, [[N-[1-(2,6-dichlorophenyl)methyl]-3-(1-pyrrolidinylmethyl)-1H-indol-5-yl]aminocarbonyl]-glycine-L-lysine-L-phenylalanine-N-benzhydrylamide]	–	inhibition was recognized	58.4 ± 13
NCC[C@H](NC(=O)CNC(=O)Nc1ccc2c(c1)c(CN1CCCC1)cn2Cc1c(Cl)cccc1Cl)C(=O)N[C@@H](Cc1ccccc1)C(=O)NC(c1ccccc1)c1ccccc1 [Example 11, [[N-[1-(2,6-dichlorophenyl)methyl]-3-(1-pyrrolidinylmethyl)-1H-indol-5-yl]aminocarbonyl]-glycine-L-α,γ-diaminobutyrate-L-phenylalanine-N-benzhydrylamide]	32 ± 2.3	–	–
CN1CCN(Cc2cn(Cc3c(Cl)cccc3Cl)c3ccc(NC(=O)NCC(=O)N[C@@H](CCCCN)C(=O)N[C@@H](Cc4ccccc4)C(=O)NC(c4ccccc4)c4ccccc4)cc23)CC1 [Example 12, [[N-[1-(2,6-dichlorophenyl)methyl]-3-[1-(4-methylpiperazinyl)methyl]-1H-indol-5-yl]aminocarbonyl]-glycine-L-lysine-L-phenylalanine-N-benzhydrylamide]	52.2 ± 1.8	–	–

Second part, led by results:

inhibition at 10 µg/mL [1] [%]	SMILES	PAR-2 inhibitory action (inhibition of the agonist-induced increase in intracellular Ca2+ level), in words (compound final concentration 10 μg/mL, SLIGKV 10 μM, human keratinocytes, FIG. 1)	inhibition at 10 µg/mL [%]
33.6 ± 16.8	NCC[C@H](NC(=O)CNC(=O)Nc1ccc2c(c1)c(CN1CCCC1)cn2Cc1c(Cl)cccc1Cl)C(=O)N[C@@H](Cc1ccccc1)C(=O)NCc1ccccc1 [Example 20, [[N-[1-(2,6-dichlorophenyl)methyl]-3-(1-pyrrolidinylmethyl)-1H-indol-5-yl]aminocarbonyl]-glycine-L-α,γ-diaminobutyrate-L-phenylalanine-N-benzylamide]	–	–
14.2 ± 10	NCCCC[C@H](NC(=O)CNC(=O)Nc1ccc2c(c1)c(CN1CCCC1)cn2Cc1c(Cl)cccc1Cl)C(=O)N[C@@H](Cc1ccccc1)C(=O)NCc1ccccc1 [Example 21, [[N-[1-(2,6-dichlorophenyl)methyl]-3-(1-pyrrolidinylmethyl)-1H-indol-5-yl]aminocarbonyl]-glycine-L-lysine-L-phenylalanine-N-benzylamide]	–	–
15.1 ± 10.5	CC(C)n1ccc2cc(NC(=O)NCC(=O)N[C@@H](CCN)C(=O)N[C@@H](Cc3ccccc3)C(=O)NCc3ccccc3)ccc21 [Example 24, [[N-isopropyl-1H-indol-5-yl]aminocarbonyl]-glycine-L-α,γ-diaminobutyrate-L-phenylalanine-N-benzylamide]	–	–
